For 30 compounds, IC50 results are on record in patent US7973061B2, “Anaplastic lymphoma kinase modulators and methods of use” (Exelixis, Inc., priority 2004, dated 2011).

The experiment has as its target T1, ALK (baculovirus expressed human ALK kinase domain F1098-K1410) (Homo sapiens, UniProt Q9UM73).
T1 construct: human ALK kinase domain F1098-K1410; made in house
Description: biochemical. The note with it: 1 μM ATP, 4 μM poly-AEKY, 12 nM ALK, 2 hours at ambient temperature; read-out: ALK IC50. The gist of the method:
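Inhibitors were tested at 10 concentrations, and IC50 was derived from a sigmoidal fit (Min, Max, Hill slope). Kinase activity was measured as percent ATP left after a 2 h reaction at room temperature, detected by luciferase-luciferin chemiluminescence. The ATP level was set close to KM for the ALK kinase domain F1098-K1410.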

As usually defined, the IC50 is the concentration at which inhibition is half-maximal.

T1 sequence (Q9UM73 1098-1410): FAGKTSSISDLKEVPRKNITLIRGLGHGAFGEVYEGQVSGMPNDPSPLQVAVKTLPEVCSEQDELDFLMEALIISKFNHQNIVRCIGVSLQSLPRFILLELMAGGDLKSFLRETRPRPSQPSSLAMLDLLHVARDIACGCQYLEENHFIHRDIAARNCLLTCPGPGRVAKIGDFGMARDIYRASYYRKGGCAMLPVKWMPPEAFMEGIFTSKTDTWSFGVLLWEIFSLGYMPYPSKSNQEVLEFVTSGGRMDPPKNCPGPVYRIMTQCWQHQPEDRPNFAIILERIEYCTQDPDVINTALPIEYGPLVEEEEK

On to `C[C@@H]1[C@@H](NC(=O)c2csc(CNC(=O)COc3ccc(OC(F)(F)F)cc3)n2)C[C@H]2C[C@@H]1C2(C)C` [Entry 12, 2-({[({4-[(trifluoromethyl)oxy]phenyl}oxy)acetyl]amino}methyl)-N-[(1S,2S,3S,5R)-2,6,6-trimethylbicyclo[3.1.1]hept-3-yl]-1,3-thiazole-4-carboxamide], for which the IC50 is under 50 nM.

As for `COc1cccc(CCNC(=O)c2coc(CNC(=O)COc3ccc(OC(F)(F)F)cc3)n2)c1` [Entry 234, N-{2-[3-(methyloxy)phenyl]ethyl}-2-({[({4-[(trifluoromethyl)oxy]phenyl}oxy)acetyl]amino}methyl)-1,3-oxazole-4-carboxamide], the half-maximal inhibitory concentration (IC50) lay within 500 to 2000 nM.

As to `Cc1cccc(CCNC(=O)c2csc(CNC(=O)COc3ccc(OC(F)(F)F)cc3)n2)c1` [Entry 21, N-[2-(3-methylphenyl)ethyl]-2-({[({4-[(trifluoromethyl)oxy]phenyl}oxy)acetyl]amino}methyl)-1,3-thiazole-4-carboxamide], the IC50 was under 50 nM. Next, `NS(=O)(=O)c1ccc(CCNC(=O)c2csc(CNC(=O)COc3ccc(OC(F)(F)F)cc3)n2)cc1` [Entry 13, N-{2-[4-(aminosulfonyl)phenyl]ethyl}-2-({[({4-[(trifluoromethyl)oxy]phenyl}oxy)acetyl]amino}methyl)-1,3-thiazole-4-carboxamide]: under 50 nM; `CC(NC(=O)c1csc(CNC(=O)COc2ccc(OC(F)(F)F)cc2)n1)c1ccc(F)cc1` (stereo not drawn) [Entry 86, N-[1-(4-fluorophenyl)ethyl]-2-({[({4-[(trifluoromethyl)oxy]phenyl}oxy)acetyl]amino}methyl)-1,3-thiazole-4-carboxamide]: 50 to 500 nM; `O=C(COc1ccc(OC(F)(F)F)cc1)NCc1nc(C(=O)N[C@@H]2CCCc3ccccc32)cs1` [Entry 165, N-[(1R)-1,2,3,4-tetrahydronaphthalen-1-yl]-2-({[({4-[(trifluoromethyl)oxy]phenyl}oxy)acetyl]amino}methyl)-1,3-thiazole-4-carboxamide]: 50 to 500 nM. Next, `O=C(COc1ccc(OC(F)(F)F)cc1)NCc1nc(C(=O)NCCc2ccncc2)co1` [Entry 219, N-(2-pyridin-4-ylethyl)-2-({[({4-[(trifluoromethyl)oxy]phenyl}oxy)acetyl]amino}methyl)-1,3-oxazole-4-carboxamide]: 500 to 2000 nM; `O=C(COc1ccc(OC(F)(F)F)cc1)NCc1nc(C(=O)NCC(c2ccccc2)c2ccccc2)co1` [Entry 226, N-(2,2-diphenylethyl)-2-({[({4-[(trifluoromethyl)oxy]phenyl}oxy)acetyl]amino}methyl)-1,3-oxazole-4-carboxamide]: 500 to 2000 nM.

In the case of `O=C(COc1ccc(OC(F)(F)F)cc1)NCc1nc(C(=O)NCc2cccc(F)c2F)cs1` [Entry 116, N-[(2,3-difluorophenyl)methyl]-2-({[({4-[(trifluoromethyl)oxy]phenyl}oxy)acetyl]amino}methyl)-1,3-thiazole-4-carboxamide], the IC50 is 50 to 500 nM. Next, `O=C(COc1ccc(OC(F)(F)F)cc1)NCc1nc(C(=O)N2CCCC3CCCCC32)cs1` (stereo not drawn) [Entry 252, N-{[4-(octahydroquinolin-1(2H)-ylcarbonyl)-1,3-thiazol-2-yl]methyl}-2-({4-[(trifluoromethyl)oxy]phenyl}oxy)acetamide]: 500 to 2000 nM. To `COc1cccc(CNC(=O)c2csc(CNC(=O)Nc3ccc(C(C)C)cc3)n2)c1OC` [Entry 78, N-{[2,3-bis(methyloxy)phenyl]methyl}-2-{[({[4-(1-methylethyl)phenyl]amino}carbonyl)amino]methyl}-1,3-thiazole-4-carboxamide] belongs 50 to 500 nM. To `O=C(COc1ccc(OC(F)(F)F)cc1)NCc1nc(C(=O)NCC(F)(F)F)cs1` [Entry 280, N-(2,2,2-trifluoroethyl)-2-({[({4-[(trifluoromethyl)oxy]phenyl}oxy)acetyl]amino}methyl)-1,3-thiazole-4-carboxamide] belongs 500 to 2000 nM.

For the compound `O=C(COc1ccc(OC(F)(F)F)cc1)NCc1nc(C(=O)NCc2ccccn2)cs1` [Entry 190, N-(pyridin-2-ylmethyl)-2-({[({4-[(trifluoromethyl)oxy]phenyl}oxy)acetyl]amino}methyl)-1,3-thiazole-4-carboxamide], the concentration for half-maximal inhibition (IC50) lay in the range of 50 to 500 nM.

As to `CC(C)c1ccc(NC(=O)NCc2nc(C(=O)NCCc3cccc(Cl)c3)cs2)cc1` [Entry 25, N-[2-(3-chlorophenyl)ethyl]-2-{[({[4-(1-methylethyl)phenyl]amino}carbonyl)amino]methyl}-1,3-thiazole-4-carboxamide], the IC50 was under 50 nM. To `O=C(COc1ccc(OC(F)(F)F)cc1)NCc1nc(C(=O)NCCCN2CCOCC2)cs1` [Entry 267, N-(3-morpholin-4-ylpropyl)-2-({[({4-[(trifluoromethyl)oxy]phenyl}oxy)acetyl]amino}methyl)-1,3-thiazole-4-carboxamide] belongs 500 to 2000 nM; to `O=C(COc1ccc(OC(F)(F)F)cc1)NCc1nc(C(=O)NCc2cccs2)cs1` [Entry 164, N-(2-thienylmethyl)-2-({[({4-[(trifluoromethyl)oxy]phenyl}oxy)acetyl]amino}methyl)-1,3-thiazole-4-carboxamide], 50 to 500 nM. Next, `CC(C)C(C)NC(=O)c1csc(CNC(=O)COc2ccc(OC(F)(F)F)cc2)n1` (stereo not drawn) [Entry 197, N-(1,2-dimethylpropyl)-2-({[({4-[(trifluoromethyl)oxy]phenyl}oxy)acetyl]amino}methyl)-1,3-thiazole-4-carboxamide]: 50 to 500 nM; `Cc1cc(Cl)ccc1CNC(=O)c1csc(CNC(=O)COc2ccc(OC(F)(F)F)cc2)n1` [Entry 150, N-[(4-chloro-2-methylphenyl)methyl]-2-({[({4-[(trifluoromethyl)oxy]phenyl}oxy)acetyl]amino}methyl)-1,3-thiazole-4-carboxamide]: 50 to 500 nM. Next, `NC(=O)[C@H](Cc1ccccc1)NC(=O)c1csc(CNC(=O)COc2ccc(OC(F)(F)F)cc2)n1` [Entry 188, Nalpha-{[2-({[({4-[(trifluoromethyl)oxy]phenyl}oxy)acetyl]amino}methyl)-1,3-thiazol-4-yl]carbonyl}-L-phenylalaninamide]: 50 to 500 nM; `COc1ccc(CCNC(=O)c2csc(CNC(=O)COc3ccc(OC(F)(F)F)cc3)n2)cc1` [Entry 9, N-{2-[4-(methyloxy)phenyl]ethyl}-2-({[({4-[(trifluoromethyl)oxy]phenyl}oxy)acetyl]amino}methyl)-1,3-thiazole-4-carboxamide]: under 50 nM. Take `O=C(COc1ccc(OC(F)(F)F)cc1)NCc1nc(C(=O)Nc2ccc(C(=O)O)c(O)c2)cs1` [Entry 142, 2-hydroxy-4-({[2-({[({4-[(trifluoromethyl)oxy]phenyl}oxy)acetyl]amino}methyl)-1,3-thiazol-4-yl]carbonyl}amino)benzoic acid]: the IC50 lay in the range of 50 to 500 nM.

For `CC(C)(C)OC(=O)NC1CCN(C(=O)c2csc(CNC(=O)COc3ccc(OC(F)(F)F)cc3)n2)C1` (stereo not drawn) [Entry 278, 1,1-dimethylethyl (1-{[2-({[({4-[(trifluoromethyl)oxy]phenyl}oxy)acetyl]amino}methyl)-1,3-thiazol-4-yl]carbonyl}pyrrolidin-3-yl)carbamate], the IC50 lay within 500 to 2000 nM.

For the compound `O=C(NCCc1cccc(Cl)c1)c1csc(CNC(=O)c2cccnc2Oc2ccc(F)cc2)n1` [Entry 141, N-{[4-({[2-(3-chlorophenyl)ethyl]amino}carbonyl)-1,3-thiazol-2-yl]methyl}-2-[(4-fluorophenyl)oxy]pyridine-3-carboxamide], the IC50 was in the range of 50 to 500 nM. Next, `Cc1ccc(N2CCN(C(=O)c3csc(CNC(=O)COc4ccc(OC(F)(F)F)cc4)n3)CC2C)cc1` (stereo not drawn) [Entry 243, N-[(4-{[3-methyl-4-(4-methylphenyl)piperazin-1-yl]carbonyl}-1,3-thiazol-2-yl)methyl]-2-({4-[(trifluoromethyl)oxy]phenyl}oxy)acetamide]: 500 to 2000 nM; `C[C@@H]1CN(C(=O)c2csc(CNC(=O)COc3ccc(OC(F)(F)F)cc3)n2)C[C@H](C)O1` [Entry 255, N-[(4-{[(2R,6S)-2,6-dimethylmorpholin-4-yl]carbonyl}-1,3-thiazol-2-yl)methyl]-2-({4-[(trifluoromethyl)oxy]phenyl}oxy)acetamide]: 500 to 2000 nM. `Cc1onc(-c2ccccc2)c1CNC(=O)c1csc(CNC(=O)COc2ccc(OC(F)(F)F)cc2)n1` [Entry 135, N-[(5-methyl-3-phenylisoxazol-4-yl)methyl]-2-({[({4-[(trifluoromethyl)oxy]phenyl}oxy)acetyl]amino}methyl)-1,3-thiazole-4-carboxamide]: the half-inhibitory concentration (IC50) fell in the range of 50 to 500 nM.

Consider `Cc1ccc(NC(=O)NCc2nc(C(=O)NCCc3cccc(Cl)c3)cs2)cc1` [Entry 168, N-[2-(3-chlorophenyl)ethyl]-2-[({[(4-methylphenyl)amino]carbonyl}amino)methyl]-1,3-thiazole-4-carboxamide], for which the IC50 is 50 to 500 nM. To `O=C(COc1ccc(OC(F)(F)F)cc1)NCc1nc(C(=O)NCc2ccccc2OC(F)F)cs1` [Entry 34, N-({2-[(difluoromethyl)oxy]phenyl}methyl)-2-({[({4-[(trifluoromethyl)oxy]phenyl}oxy)acetyl]amino}methyl)-1,3-thiazole-4-carboxamide] belongs 50 to 500 nM. To `O=C(COc1ccc(OC(F)(F)F)cc1)NCc1nc(C(=O)NCCc2ccc(Cl)cc2)co1` [Entry 246, N-[2-(4-chlorophenyl)ethyl]-2-({[({4-[(trifluoromethyl)oxy]phenyl}oxy)acetyl]amino}methyl)-1,3-oxazole-4-carboxamide] belongs 500 to 2000 nM. To `CCCCC(CC)CNC(=O)c1csc(CNC(=O)COc2ccc(OC(F)(F)F)cc2)n1` (stereo not drawn) [Entry 200, N-(2-ethylhexyl)-2-({[({4-[(trifluoromethyl)oxy]phenyl}oxy)acetyl]amino}methyl)-1,3-thiazole-4-carboxamide] belongs 50 to 500 nM.
